Experimental data taken from ChEMBL document CHEMBL2407042, “Investigation of the protein alkylation sites of the STAT3:STAT3 inhibitor Stattic by mass spectrometry” (Bioorg Med Chem Lett, 2013).
Calls of active or inactive are those of the source. The calls are words filed in the database; no cut-off is given here.

Assays:
[1] = organism: Homo sapiens; assay: Binding affinity to STAT3 beta (127 to 722) (unknown origin) expressed in Escherichia coli BL21 Rosetta at 50 uM treated for 1 hr prior to trypsin digestion measured after 24 hrs by LC-MS/MS analysis in presence of ammonium bicarbonate and guanidium HCl
[2] = organism: Homo sapiens; assay: Binding affinity to STAT3 beta (127 to 722) (unknown origin) expressed in Escherichia coli BL21 Rosetta at 50 uM treated for 1 hr prior to trypsin digestion measured after 24 hrs by LC-MS/MS analysis in presence of ammonium bicarbonate and N-octyl-glucoside
[3] = organism: Homo sapiens; assay: Binding affinity to STAT3 beta (127 to 722) (unknown origin) expressed in Escherichia coli BL21 Rosetta at 50 uM treated for 1 hr prior to trypsin digestion measured after 24 hrs by LC-MS/MS analysis in presence of ammonium bicarbonate
[4] = organism: Homo sapiens; assay: Binding affinity to STAT3 beta (127 to 722) (unknown origin) expressed in Escherichia coli BL21 Rosetta at 50 uM after 1 hr by mass spectrophotometric analysis
[5] = organism: Homo sapiens; assay: Binding affinity to STAT3 beta (127 to 722) (unknown origin) expressed in Escherichia coli BL21 Rosetta at 50 uM treated for 1 hr prior to trypsin digestion measured after 24 hrs by LC-MS/MS analysis in presence of ammonium bicarbonate and acetonitrile

Activity [1]: inactive | Activity [2]: Active | Activity [3]: Active | Activity [4]: Active | Activity [5]: Active
SMILES: O=[N+]([O-])c1ccc2c(c1)S(=O)(=O)C=C2
